From patent US10077243B2, “Compounds for treating disorders mediated by metabotropic glutamate receptor 5, and methods of use thereof” (Sunovion Pharmaceuticals Inc., priority 2009, dated 2018)

Target: T1, human mGluR5 (Homo sapiens, UniProt P41594)
T1 construct: expressed in transfected cells; host or cells: HEK293 cells stably expressing rat GLAST (EAAT1), stably transfected with pcDNAzeo3.1 carrying synthetic human mGluR5 DNA; zeocin-selected single clones
Assay: In vitro cell-based FLIPR calcium assay for positive modulation of the activation of mGluR5 by glutamate (PAM EC50)
Conditions: HEK293/GLAST cells expressing recombinant human mGluR5; FLIPR calcium signal; glutamate added at its EC20; read-out: mGluR5 PAM EC50
Excerpt: The DNA sequences encoding the structural regions for rat mGluR5 [Abe T, Sugihara H, Nawa H, Shigemoto R, Mizuno N, Nakanishi S (1992) “Molecular characterization of a novel metabotropic glutamate receptor mGluR5 coupled to inositol phosphate/Ca^2+ signal transduction” Journal of Biological Chemistry vol. 267, no. 19, pp. 13361-8] and human mGluR5 [Daggett L P, Sacaan A I, Akong M, Rao S P, Hess S D, Liaw C, Urrutia A, Jachec C, Ellis S B, Dreessen J, Knöpfel T, Landwehrmeyer G B, Testa C M, Young A B, Varney M, Johnson E C, Veliçelebi (1995) “Molecular and functional characterization of recombinant human metabotropic glutamate receptor subtype 5” Neuropharmacology vol. 34, no. […] 53, no. 3, pp. 355-369] was obtained from Dr. Michael Robinson of the Children's Hospital of Philadelphia under a Material Transfer Agreement. The pcDNAzeo3.1 vector DNA, carrying either rat mGluR5 or human mGluR5, was used to transfect a sample of the HEK293/GLAST cells, and single clones that express mGluR5 were isolated from the transfected cells using zeocin selection. Expression of mGluR5 was assessed by measurement of the transient fluorescence signal elicited from HEK293/GLAST/mGluR5 cells by glutamate following the loading of the cells with a calcium-sensitive dye using a FLIPR Tetra (Fluorometric Imaging Plate Reader) (Molecular Devices, Sunnyvale, Calif.) [O'Brien J A, Lemaire W, Chen T B, Chang R S, Jacobson M A, Ha S N, Lindsley C W, Schaffhauser H J, Sur C, Pettibone D J, Conn P J, Williams D L Jr. […] 64, no. 3, pp. 731-740; Assay Guidance Manual Version 5.0, 2008, Eli Lilly and Company and NIH Chemical Genomics Center; available online HEK293/GLAST/mGluR5 cells were grown in Dulbecco's Modified Eagle Medium (DMEM) supplemented with 10% dialyzed fetal bovine serum, 20 millimolar (mM) N-2-hydroxyethylpiperazine-N′-2-ethanesulfonic acid (HEPES), penicillin, streptomycin, 1% GlutaMax™ (Invitrogen) and 50 μg/ml zeocin. Cells were grown in the media to 70-80% confluency at 37° C. under 5% CO2, 95% humidity in poly-D-lysine coated coated flasks. Cells for assays were plated into 96-well sterile standard microtiter plates (pre-coated with poly-D-lysine) at a density of 50,000 cells per well in 0.2 milliliters of media. Plated cells were allowed to settle and adhere for 30 minutes at ambient conditions, and then were incubated overnight at 37° C. under 5% CO2, 95% humidity. Several such 96-well plates were typically prepared. On the day of the assays, the components of the FLIPR calcium 4 assay kit (Molecular Devices) were dissolved according to the instructions of the dye kit's manufacturer in assay buffer (Hank's balanced salt solution (HBSS) (Gibco) supplemented with 20 mM HEPES). After removal of the growth media from the first plate, cells were loaded with calcium dye by addition of calcium dye solution (50 microliters per well) and incubation at 25° C. for 45 to 60 minutes. The first plate was placed into the FLIPR Tetra, and a dilution series of glutamate solutions in assay buffer were added to wells on the plate, followed by acquisition of fluorescence data for several minutes. The fluorescence data (maximal signal as a 4-parameter sigmoidal function of log [glutamate]) were processed by non-linear regression methods using the software package GraphPad Prism 5.01 (GraphPad Software Inc.), to yield a glutamate concentration-response curve (CRC). […] These values were, respectively, the concentrations of glutamate that elicit 20%, 50%, and 80% of the maximal FLIPR signal (observed at saturating [glutamate]). The method for measuring the concentration response of a potentiator, or positive allosteric modulator (PAM), is described here as an example. For that purpose, subsequent assays were typically performed using assay buffer containing a glutamate concentration equal to that day's EC20. […] Addition to certain wells of the same buffer containing 0.3% DMSO, but without any test compound, provided a negative control.

T1 sequence (P41594 21-1212): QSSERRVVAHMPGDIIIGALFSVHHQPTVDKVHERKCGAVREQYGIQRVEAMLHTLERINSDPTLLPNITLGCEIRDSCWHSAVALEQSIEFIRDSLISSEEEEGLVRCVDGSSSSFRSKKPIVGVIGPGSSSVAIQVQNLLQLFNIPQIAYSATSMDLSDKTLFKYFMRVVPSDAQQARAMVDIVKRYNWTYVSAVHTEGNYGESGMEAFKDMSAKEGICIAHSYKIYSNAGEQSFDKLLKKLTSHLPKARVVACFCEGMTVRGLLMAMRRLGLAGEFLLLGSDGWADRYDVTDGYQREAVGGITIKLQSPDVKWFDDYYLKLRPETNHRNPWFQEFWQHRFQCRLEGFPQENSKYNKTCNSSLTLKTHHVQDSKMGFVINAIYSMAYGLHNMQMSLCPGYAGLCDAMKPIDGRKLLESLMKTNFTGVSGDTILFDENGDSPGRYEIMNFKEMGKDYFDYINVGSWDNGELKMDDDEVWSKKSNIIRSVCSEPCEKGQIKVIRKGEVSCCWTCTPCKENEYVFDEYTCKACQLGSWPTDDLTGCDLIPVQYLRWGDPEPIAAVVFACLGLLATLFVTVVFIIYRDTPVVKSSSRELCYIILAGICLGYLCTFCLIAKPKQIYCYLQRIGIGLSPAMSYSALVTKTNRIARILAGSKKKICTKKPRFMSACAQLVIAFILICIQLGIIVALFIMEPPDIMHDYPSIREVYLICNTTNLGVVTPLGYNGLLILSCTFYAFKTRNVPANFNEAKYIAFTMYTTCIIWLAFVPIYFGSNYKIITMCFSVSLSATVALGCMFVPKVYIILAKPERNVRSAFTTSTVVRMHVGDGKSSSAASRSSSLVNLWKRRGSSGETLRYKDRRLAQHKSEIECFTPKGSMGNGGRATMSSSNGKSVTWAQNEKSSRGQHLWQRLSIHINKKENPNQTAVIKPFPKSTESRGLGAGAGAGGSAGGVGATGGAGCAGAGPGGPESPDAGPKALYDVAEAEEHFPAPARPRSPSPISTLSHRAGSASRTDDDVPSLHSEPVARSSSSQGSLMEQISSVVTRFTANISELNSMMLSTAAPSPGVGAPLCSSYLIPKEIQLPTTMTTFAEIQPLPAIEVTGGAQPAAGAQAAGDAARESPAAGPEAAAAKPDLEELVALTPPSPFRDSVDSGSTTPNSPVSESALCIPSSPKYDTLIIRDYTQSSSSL

## CC1(C)Cc2nc3cc(C#Cc4ccccn4)ccc3c(=O)n2C1 [Example 3.20, 2,2-dimethyl-6-(pyridin-2-ylethynyl)-2,3-dihydropyrrolo[2,1-b]quinazolin-9(1H)-one]
  EC50: < 10 nM

## O=c1c2ccc(C#Cc3ccccn3)cc2nc2n1CC1(CCOCC1)C2 [Example 3.24, 6′-(pyridin-2-ylethynyl)-2,3,5,6-tetrahydro-1′H-spiro[pyran-4,2′-pyrrolo[2,1-b]quinazolin]-9′(3′H)-one]
  EC50: 10 to 30 nM

## O=c1c2ccc(C#Cc3ccccn3)cc2nc2n1C1CCC2C1 (stereo not shown) [Example 3.25, 3-(pyridin-2-ylethynyl)-8,9-dihydro-6H-6,9-methanopyrido[2,1-b]quinazolin-11(7H)-one]
  EC50: 10 to 30 nM

## O=c1c2ccc(C#Cc3cccc(F)c3)cc2nc2n1CCOC2 [Example 4.1, 9-((3-fluorophenyl)ethynyl)-3,4-dihydro-[1,4]oxazino[3,4-b]quinzolin-6(1H)-one]
  EC50: < 10 nM

## O=c1c2ccc(C#Cc3ccc(F)cc3)cc2nc2n1CCOC2 [Example 4.2, 9-((4-fluorophenyl)ethynyl)-3,4-dihydro-[1,4]oxazino[3,4-b]quinazolin-6(1H)-one]
  EC50: 30 to 100 nM

## O=c1c2ccc(C#Cc3cccc(F)c3)cc2nc2n1CCCC2 [Example 4.4]
  EC50: < 10 nM

## O=c1c2ccc(C#Cc3ccc(F)cc3)cc2nc2n1CCCC2 [Example 4.5, 3-((4-fluorophenyl)ethynyl)-8,9-dihydro-6H-pyrido[2,1-b]quinazolin-11(7H)-one]
  EC50: < 10 nM

## C=CCC1CCCn2c1nc1cc(C#Cc3cccc(F)c3)ccc1c2=O (stereo not shown) [Example 4.7, 6-allyl-3-((3-fluorophenyl)ethynyl)-8,9-dihydro-6H-pyrido[2,1-b]quinazolin-11(7H)-one]
  EC50: 10 to 30 nM

## CCC1CCCn2c1nc1cc(C#Cc3cccc(F)c3)ccc1c2=O (stereo not shown) [Example 4.8, 6-ethyl-3-((3-fluorophenyl)ethynyl)-8,9-dihydro-6H-pyrido[2,1-b]quinazolin-11(7H)-one]
  EC50: 100 to 300 nM

## O=c1c2ccc(C#Cc3cccc(F)c3)cc2nc2n1CCCC2Cc1ccccc1 (stereo not shown) [Example 4.9, 6-benzyl-3-((3-fluorophenyl)ethynyl)-8,9-dihydro-6H-pyrido[2,1-b]quinazolin-11(7H)-one]
  EC50: 100 to 300 nM

## CC1CCn2c(nc3cc(C#Cc4cccc(F)c4)ccc3c2=O)C1 (stereo not shown) [Example 4.10, 3-((3-fluorophenyl)ethynyl)-7-methyl-8,9-dihydro-6H-pyrido[2,1-b]quinazolin-11(7H)-one]
  EC50: < 10 nM

## CC1CCn2c(nc3cc(C#Cc4ccccn4)ccc3c2=O)C1 (stereo not shown) [Example 4.11, 7-methyl-3-(pyridin-2-ylethynyl)-8,9-dihydro-6H-pyrido[2,1-b]quinazolin-11(7H)-one]
  EC50: 30 to 100 nM

## CC1CCc2nc3cc(C#Cc4ccccn4)ccc3c(=O)n2C1 (stereo not shown) [Example 4.12, 8-methyl-3-(pyridin-2-ylethynyl)-8,9-dihydro-6H-pyrido[2,1-b]quinazolin-11(7H)-one]
  EC50: 10 to 30 nM

## CC1(C)CCn2c(nc3cc(C#Cc4cccc(F)c4)ccc3c2=O)C1 [Example 4.13, 3-((3-fluorophenyl)ethynyl)-7,7-dimethyl-8,9-dihydro-6H-pyrido[2,1-b]quinazolin-11(7H)-one]
  EC50: < 10 nM

## CC1(C)CCc2nc3cc(C#Cc4cccc(F)c4)ccc3c(=O)n2C1 [Example 4.14, 3-((3-fluorophenyl)ethynyl)-8,8-dimethyl-8,9-dihydro-6H-pyrido[2,1-b]quinazolin-11(7H)-one]
  EC50: < 10 nM

## CC1(C)CCn2c(nc3cc(C#Cc4ccccn4)ccc3c2=O)C1 [Example 4.15, 7,7-dimethyl-3-(pyridin-2-ylethynyl)-8,9-dihydro-6H-pyrido[2,1-b]quinazolin-11(7H)-one]
  EC50: < 10 nM

## CC1(C)CCc2nc3cc(C#Cc4ccccn4)ccc3c(=O)n2C1 [Example 4.16, 8,8-dimethyl-3-(pyridin-2-ylethynyl)-8,9-dihydro-6H-pyrido[2,1-b]quinazolin-11(7H)-one]
  EC50: < 10 nM

## CC1CCCc2nc3cc(C#Cc4cccc(F)c4)ccc3c(=O)n21 (stereo not shown) [Example 4.17, 3-((3-fluorophenyl)ethynyl)-9-methyl-8,9-dihydro-6H-pyrido[2,1-b]quinazolin-11(7H)-one]
  EC50: 10 to 30 nM

## CC1CCCc2nc3cc(C#Cc4ccccn4)ccc3c(=O)n21 (stereo not shown) [Example 4.18, 9-methyl-3-(pyridin-2-ylethynyl)-8,9-dihydro-6H-pyrido[2,1-b]quinazolin-11(7H)-one]
  EC50: 10 to 30 nM

## CCC1CCCc2nc3cc(C#Cc4ccccn4)ccc3c(=O)n21 (stereo not shown) [Example 4.19, 9-ethyl-3-(pyridin-2-ylethynyl)-8,9-dihydro-6H-pyrido[2,1-b]quinazolin-11(7H)-one]
  EC50: 10 to 30 nM

## O=c1c2ccc(C#Cc3cccc(F)c3)cc2nc2n1CCC=C2 [Example 4.20, 3-((3-fluorophenyl)ethynyl)-8H-pyrido[2,1-b]quinazolin-11(9H)-one]
  EC50: 10 to 30 nM

## O=c1c2ccc(C#Cc3cccc(F)c3)cc2nc2n1CC1(CC2)OCCO1 [Example 4.21, 3′((3-fluorophenyl)ethynyl)-6′,7′-dihydrospiro[[1,3]dioxolane-2,8′-pyrido[2,1-b]quinazolin]-11′(9′H)-one]
  EC50: 10 to 30 nM

## O=C1CCc2nc3cc(C#Cc4cccc(F)c4)ccc3c(=O)n2C1 [Example 4.22, 3-((3-fluorophenyl)ethynyl)-6H-pyrido[2,1-b]quinazoline-8,11(7H,9H)-dione]
  EC50: 30 to 100 nM

## O=c1c2ccc(C#Cc3cccc(F)c3)cc2nc2n1CC(O)CC2 (stereo not shown) [Example 4.23, 3-((3-fluorophenyl)ethynyl)-8-hydroxy-8,9-dihydro-6H-pyrido[2,1-b]quinazolin-11(7H)-one]
  EC50: 30 to 100 nM

## O=c1c2ccc(C#Cc3ccccn3)cc2nc2n1CC(O)CC2 (stereo not shown) [Example 4.24, 8-hydroxy-3-(pyridin-2-ylethynyl)-8,9-dihydro-6H-pyrido[2,1-b]quinazolin-11(7H)-one]
  EC50: 300 to 1000 nM

## COC1CCc2nc3cc(C#Cc4cccc(F)c4)ccc3c(=O)n2C1 (stereo not shown) [Example 4.25, 3-((3-fluorophenyl)ethynyl)-8-methoxy-8,9-dihydro-6H-pyrido[2,1-b]quinazolin-11(7H)-one]
  EC50: < 10 nM

## COC1CCc2nc3cc(C#Cc4ccccn4)ccc3c(=O)n2C1 (stereo not shown) [Example 4.26, 8-methoxy-3-(pyridin-2-ylethynyl)-8,9-dihydro-6H-pyrido[2,1-b]quinazolin-11(7H)-one]
  EC50: 30 to 100 nM

## O=c1c2ccc(C#Cc3ccccn3)cc2nc2n1CC1CC21 (stereo not shown) [Example 4.27, 4-(pyridin-2-ylethynyl)-9,9a-dihydro-1H-cyclopropa[3,4]pyrrolo[2,1-b]quinazolin-7(1aH)-one]
  EC50: 30 to 100 nM

## C=C1CCc2nc3cc(C#Cc4cccc(F)c4)ccc3c(=O)n2C1 [Example 4.28, 3-((3-fluorophenyl)ethynyl)-8-methylene-8,9-dihydro-6H-pyrido[2,1-b]quinazolin-11(7H)-one]
  EC50: 10 to 30 nM

## CN(C)C1CCc2nc3cc(C#Cc4cccc(F)c4)ccc3c(=O)n2C1 (stereo not shown) [Example 4.30, 8-(dimethylamino)-3-((3-fluorophenyl)ethynyl)-8,9-dihydro-6H-pyrido[2,1-b]quinazolin-11(7H)-one]
  EC50: 100 to 300 nM

## O=c1c2ccc(C#Cc3cccc(F)c3)cc2nc2n1CC(CO)CC2 (stereo not shown) [Example 4.31, 3-((3-fluorophenyl)ethynyl)-8-(hydroxymethyl)-8,9-dihydro-6H-pyrido[2,1-b]quinazolin-11(7H)-one]
  EC50: < 10 nM
